Data from patent publication US20240408169A1 (priority 2023, published 2024).
*1 amine or outer side, *2 acyl side, *3 side chain or, on linkers, in order; H or OH if unused. Where a SMILES comes first, the peptide text is derived from it. Bridges are numbered along the chain shown (N, C = ends). [ ]: non-standard residue; d: D form. The star is where a group is joined. X90 = CC(=O)N1CC=C(c2ccc(Cl)cc2C[C@@H](C(=O)[*:2])N(C)[*:1])CC1; NMehhhLys(Me) = CN([C@@H](CCCCCCCN(C)[*:3])C(=O)[*:2])[*:1]; X22 = CN([C@@H](Cc1cc(Cl)ccc1-c1cnn(C)c1)C(=O)[*:2])[*:1]; X104 = CN([C@@H](Cc1cc(Cl)ccc1C1=CCOCC1)C(=O)[*:2])[*:1]; NMe(hhhLys) = CN([C@@H](CCCCCCCN[*:3])C(=O)[*:2])[*:1]; cBuCO(3,3-F2-1-CF3) = O=C(C1(C(F)(F)F)CC(F)(F)C1)*; Pro(trans-4-F) = O=C(O)[C@@H]1C[C@@H](F)CN1; Gly(cPr) = N[C@H](C(=O)O)C1CC1

Legend:
CyclinA2/CDK2 = target: T1, CyclinA2/CDK2 (Homo sapiens, UniProt P20248); assay: Fluorescence Polarization (FP) competitive binding assay, Cyclin A2/Cdk2; conditions: 8 nM Cyclin A2/Cdk2, 2 nM FAM probe; average of 2-3 independent experiments; read-out: Cyclin A FP IC50;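 also: plates equilibrated two hours at room temperature before polarization reading, IC50 fitted from eight-concentration compound titration curves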
T1 construct: purchased CRELUX Protein Services

CyclinB1/CDK1 = target: T2, CyclinB1/CDK1 (Homo sapiens, UniProt P14635); assay: Fluorescence Polarization (FP) competitive binding assay, Cyclin B1/Cdk1; conditions: 10 nM Cyclin B1/Cdk1, 2 nM FAM probe; average of 2-3 independent experiments; read-out: Cyclin B FP IC50;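 also: fluorescence polarization read after equilibration at room temperature, with IC50 taken from serially diluted dose-response curves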
T2 construct: purchased Eurofins, discovery 14-450

CyclinE1/CDK2 = target: T3, CyclinE1/CDK2 (Homo sapiens, UniProt P24864); assay: Fluorescence Polarization (FP) competitive binding assay, Cyclin E1/Cdk2; conditions: 10 nM Cyclin E1/Cdk2, 2 nM FAM probe; average of 2-3 independent experiments; read-out: Cyclin E FP IC50;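 also: readings taken after two-hour equilibration at room temperature in HEPES buffer with NaCl, DTT, NP-40 and BSA, IC50 fitted from eight-concentration serial dilution series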
T3 construct: purchased Eurofins, discovery 14-475

WI-38 cells = assay: MTT proliferation assay, WI-38; assay type: cell-based; conditions: 3 days compound exposure, 1:3 serial dilution starting at 10 μM;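 also: Eight- or ten-point dilution series, with exposure length chosen to span about three to four cell doublings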
NCI-H1048 cells = assay: MTT proliferation assay, NCI-H1048; assay type: cell-based; conditions: 5 days compound exposure, 1:3 serial dilution starting at 10 μM;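 also: Dose-response in 96-well plates over 8 or 10 concentration points, with exposure spanning 3-4 cell doublings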
OVCAR3 cells = assay: MTT proliferation assay, OVCAR3; assay type: cell-based; conditions: 5 days compound exposure, 1:3 serial dilution starting at 10 μM;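 also: compound given as an 8- or 10-point series, one day after plating, with exposure covering roughly 3-4 cell doublings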

| Compound | IC50 (CyclinA2/CDK2) [nM] | IC50 (CyclinB1/CDK1) [nM] | IC50 (CyclinE1/CDK2) [nM] | GI50 (WI-38 cells) [nM] | GI50 (NCI-H1048 cells) [nM] | GI50 (OVCAR3 cells) [nM] |
| --- | --- | --- | --- | --- | --- | --- |
| CC(C)C[C@@H]1NC(=O)[C@@H](N(C)C(=O)[C@@H](NC(=O)[C@@H]2C[C@@H](F)CN2C(=O)C2(C(F)(F)F)CC(F)(F)C2)C2CC2)CC=CCCCCNC(=O)[C@H](Cc2cc(Cl)ccc2C2=CCOCC2)N(C)C1=O [Example 17] | 90 | 20 | 4110 | 17900 | 240 | 560 |
| CC(=O)N1CC=C(c2ccc(Cl)cc2C[C@H]2C(=O)NCCCCC=CC[C@H](N(C)C(=O)[C@@H](NC(=O)[C@@H]3C[C@@H](F)CN3C(=O)C3(C(F)(F)F)CC(F)(F)C3)C3CC3)C(=O)N[C@@H](CC(C)C)C(=O)N2C)CC1 [Example 18] | 90 | 20 | 6190 | 9030 | 170 | 340 |
| CC(=O)N1CC=C(c2ccc(Cl)cc2C[C@H]2C(=O)NCCCCCCC[C@H](N(C)C(=O)[C@@H](NC(=O)[C@@H]3C[C@@H](F)CN3C(=O)C3(C(F)(F)F)CC(F)(F)C3)C3CC3)C(=O)N[C@@H](CC(C)C)C(=O)N2C)CC1 [Example 20] ({cBuCO(3,3-F2-1-CF3)}-[Pro(trans-4-F)][Gly(cPr)][NMe(hhhLys)]L[X90]; lactam 3-C) | 20 | 20 | 1520 | 11100 | 20 | 20 |
| CC(C)C[C@@H]1NC(=O)[C@@H](N(C)C(=O)[C@@H](NC(=O)[C@@H]2C[C@@H](F)CN2C(=O)C2(C(F)(F)F)CC(F)(F)C2)C2CC2)CCCCCCCNC(=O)[C@H](Cc2cc(Cl)ccc2C2=CCOCC2)N(C)C1=O [Example 21] ({cBuCO(3,3-F2-1-CF3)}-[Pro(trans-4-F)][Gly(cPr)][NMe(hhhLys)]L[X104]; lactam 3-C) | 20 | 20 | 1130 | 6850 | 10 | 20 |
| CC(C)C[C@@H]1NC(=O)[C@@H](N(C)C(=O)[C@@H](NC(=O)[C@@H]2C[C@@H](F)CN2C(=O)C2(C(F)(F)F)CC(F)(F)C2)C2CC2)CC=CCCCCNC(=O)[C@H](Cc2cc(Cl)ccc2-c2cnn(C)c2)N(C)C1=O [Example 26] | 60 | 20 | 1170 | 8740 | 110 | 170 |
| CC(C)C[C@@H]1NC(=O)[C@@H](N(C)C(=O)[C@@H](NC(=O)[C@@H]2C[C@@H](F)CN2C(=O)C2(C(F)(F)F)CC(F)(F)C2)C2CC2)CC=CCCCCNC(=O)[C@H](Cc2cc(Cl)ccc2-c2cnn(C3COC3)c2)N(C)C1=O [Example 27] | 90 | 20 | 1900 | 11400 | 90 | 370 |
| CC(C)C[C@@H]1NC(=O)[C@@H](N(C)C(=O)[C@@H](NC(=O)[C@@H]2C[C@@H](F)CN2C(=O)C2(C(F)(F)F)CCC2)C2CC2)CC=CCCCCNC(=O)[C@H](Cc2cc(Cl)ccc2-c2cnn(C3COC3)c2)N(C)C1=O [Example 32] | 50 | 20 | 590 | 11800 | 140 | 250 |
| CC(C)C[C@@H]1NC(=O)[C@@H](N(C)C(=O)[C@@H](NC(=O)[C@@H]2C[C@@H](F)CN2C(=O)C2(C(F)(F)F)CCC2)C2CC2)CC=CCCCCNC(=O)[C@H](Cc2cc(Cl)ccc2-c2cnn(CCO)c2)N(C)C1=O [Example 33] | 20 | 20 | 270 | 15600 | 90 | 170 |
| CC(C)C[C@@H]1NC(=O)[C@@H](N(C)C(=O)[C@@H](NC(=O)[C@@H]2C[C@@H](F)CN2C(=O)C2(C(F)(F)F)CCC2)C2CC2)CC=CCCCCN(C)C(=O)[C@H](Cc2cc(Cl)ccc2-c2cnn(C)c2)N(C)C1=O [Example 34] | 20 | 20 | 210 | 13100 | 60 | 110 |
| CC(C)C[C@@H]1NC(=O)[C@@H](N(C)C(=O)[C@@H](NC(=O)[C@@H]2C[C@@H](F)CN2C(=O)C2(C(F)(F)F)CCC2)C2CC2)CC=CCCCCN(C)C(=O)[C@H](Cc2cc(Cl)ccc2-c2cncnc2)N(C)C1=O [Example 35] | 120 | 20 | 1690 | 12400 | 170 | 350 |
| CC(=O)N1CC=C(c2ccc(Cl)cc2C[C@H]2C(=O)N(C)CCCCC=CC[C@H](N(C)C(=O)[C@@H](NC(=O)[C@@H]3C[C@@H](F)CN3C(=O)C3(C(F)(F)F)CCC3)C3CC3)C(=O)N[C@@H](CC(C)C)C(=O)N2C)CC1 [Example 36] | 30 | 20 | 820 | 16000 | 110 | 350 |
| CC(C)C[C@@H]1NC(=O)[C@@H](N(C)C(=O)[C@@H](NC(=O)[C@@H]2C[C@@H](F)CN2C(=O)C2(C(F)(F)F)CCC2)C2CC2)CC=CCCCCN(C)C(=O)[C@H](Cc2cc(F)ccc2-c2cnn(C)c2)N(C)C1=O [Example 40] | 50 | 20 | 240 | 15400 | 60 | 50 |
| COCCn1cc(-c2ccc(Cl)cc2C[C@H]2C(=O)NCCCCC=CC[C@H](N(C)C(=O)[C@@H](NC(=O)[C@@H]3C[C@@H](F)CN3C(=O)C3(C(F)(F)F)CC(F)(F)C3)C3CC3)C(=O)N[C@@H](CC(C)C)C(=O)N2C)cn1 [Example 43] | 40 | 20 | 370 | 8570 | 30 | 40 |
| COCCn1cc(-c2ccc(Cl)cc2C[C@H]2C(=O)N(C)CCCCC=CC[C@H](N(C)C(=O)[C@@H](NC(=O)[C@@H]3C[C@@H](F)CN3C(=O)C3(C(F)(F)F)CC(F)(F)C3)C3CC3)C(=O)N[C@@H](CC(C)C)C(=O)N2C)cn1 [Example 44] | 30 | 20 | 270 | 6600 | 20 | 40 |
| CC(C)C[C@@H]1NC(=O)[C@@H](N(C)C(=O)[C@@H](NC(=O)[C@@H]2C[C@@H](F)CN2C(=O)C2(C(F)(F)F)CC(F)(F)C2)C2CC2)CC=CCCCCN(C)C(=O)[C@H](Cc2cc(F)ccc2C2=CCC(O)CC2)N(C)C1=O (stereo partly drawn) [Example 47] | 40 | 20 | 800 | 12900 | 30 | 130 |
| CC(C)C[C@@H]1NC(=O)[C@@H](N(C)C(=O)[C@@H](NC(=O)[C@@H]2C[C@@H](F)CN2C(=O)C2(C(F)(F)F)CCC2)C2CC2)CC=CCCCCN(C)C(=O)[C@H](Cc2cc(Cl)ccc2Cl)N(C)C1=O [Example 48] | 80 | 20 | 130 | 15800 | 40 | 50 |
| CC(C)C[C@@H]1NC(=O)[C@@H](N(C)C(=O)[C@@H](NC(=O)[C@@H]2C[C@@H](F)CN2C(=O)C2(C(F)(F)F)CC(F)(F)C2)C2CC2)CCCCCCCN(C)C(=O)[C@H](Cc2cc(Cl)ccc2-c2cnn(C)c2)N(C)C1=O [Example 49] ({cBuCO(3,3-F2-1-CF3)}-[Pro(trans-4-F)][Gly(cPr)][NMehhhLys(Me)]L[X22]; lactam 3-C) | 20 | 20 | 350 | 11500 | 10 | 10 |
| CC(C)C[C@@H]1NC(=O)[C@@H](N(C)C(=O)[C@@H](NC(=O)[C@@H]2C[C@@H](F)CN2C(=O)C2(C(F)(F)F)CC(F)(F)C2)C2CC2)CCCCCCCN(C)C(=O)[C@H](Cc2cc(Cl)ccc2C2=CCOCC2)N(C)C1=O [Example 51] ({cBuCO(3,3-F2-1-CF3)}-[Pro(trans-4-F)][Gly(cPr)][NMehhhLys(Me)]L[X104]; lactam 3-C) | 20 | 20 | 890 | 18800 | 10 | 10 |
